Source: the supplement of paper PMC10627819

Legend:
B. subtilis 168 [1] = experiment: Bliss interaction score (quartile over a dose matrix) (fitness difference); higher = more antagonism (negative = synergy)
Outline: (§1)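 Each plate was normalised to the robust mean of its own no-drug wells, using OD595 at entry into stationary phase, with values capped at 1. This normalised growth is the fitness value. The Bliss score is the difference between observed and product-expected fitness, with single-drug fitness inferred from the combination data and quartiles taken over technical, biological and donor/recipient replicates.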

S. pneumoniae D39V [2] = experiment: as above
Outline: as §1

S. aureus Newman [3] = experiment: as above
Outline: as §1

S. aureus DSM 20231 [4] = experiment: as above
Outline: as §1

S. aureus Newman [5] = experiment: fitness (endpoint OD595 vs no drug) (fraction); higher = more growth
Outline: (§2)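 In 384-well plates at 37 °C, cultures began at OD595 0.01 in 30 µl, with 55 µl used for S. pneumoniae. OD595 readings every 30 min for 14 h were corrected by the first reading. Fitness divides the stationary-phase transition optical density by the robust mean of no-drug control wells. The result is capped at 1.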

S. aureus DSM 20231 [6] = experiment: as above; details: main component drawn
Outline: as §2

B. subtilis 168 [7] = experiment: as above
Outline: as §2

S. pneumoniae D39V [8] = experiment: as above
Outline: as §2
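Throughout, for Bliss interaction score (quartile over a dose matrix): first quartile when negative (synergy) and third quartile when positive (antagonism).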

CCN(CC)CCOC(=O)c1ccc(N)cc1 [Procaine] + CCCCCCCCCC(=O)N[C@@H]1[C@H]([C@@H]([C@H](O[C@H]1OC2=C3C=C4C=C2OC5=C(C=C(C=C5)[C@H]([C@H]6C(=O)N[C@@H](C7=C(C(=CC(=C7)O)OC8[C@H]([C@H]([C@@H]([C@H](O8)CO)O)O)O)C9=C(C=CC(=C9)[C@H](C(=O)N6)NC(=O)[C@@H]4NC(=O)[C@@H]1C2=CC(=CC(=C2)OC2=C(C=CC(=C2)[C@H](C(=O)N[C@H](CC2=CC(=C(O3)C=C2)Cl)C(=O)N1)N)O)O)O)C(=O)O)O[C@H]1[C@@H]([C@H]([C@@H]([C@H](O1)CO)O)O)NC(=O)C)Cl)CO)O)O [Teicoplanin]
main component drawn
Details | Bliss interaction score
B. subtilis 168 [1] | -0.0776
S. aureus DSM 20231 [4] | 0.044
S. aureus Newman [3] | 0.0323
S. pneumoniae D39V [2] | -0.113

fitness, S. aureus Newman [5], main component drawn
Details | first compound 85.5 µg/mL | first compound 171 µg/mL | first compound 342 µg/mL
partner 0.1562 µg/mL | 0.996 | ≥ 1 | 0.997
partner 0.3125 µg/mL | 0.975 | 0.981 | 0.963
partner 0.625 µg/mL | 0.83 | 0.898 | 0.889

fitness, S. aureus Newman [5], one replicate, main component drawn
Details | first compound 85.5 µg/mL | first compound 171 µg/mL | first compound 342 µg/mL
partner 0.62 µg/mL | 0.774 | 0.738 | 0.765
partner 1.24 µg/mL | 0.785 | 0.705 | 0.726
partner 2.48 µg/mL | 0.407 | 0.496 | 0.478

fitness, S. aureus DSM 20231 [6]
Details | first compound 85.5 µg/mL | first compound 171 µg/mL | first compound 342 µg/mL
partner 0.1562 µg/mL | ≥ 1 | ≥ 1 | 0.992
partner 0.3125 µg/mL | 0.975 | ≥ 1 | ≥ 1
partner 0.625 µg/mL | ≥ 1 | ≥ 1 | ≥ 1

CCCCCCCCCC(=O)N[C@@H](Cc1c[nH]c2ccccc12)C(=O)N[C@H](CC(N)=O)C(=O)N[C@@H](CC(=O)O)C(=O)N[C@@H]1C(=O)NCC(=O)N[C@@H](CCCN)C(=O)N[C@@H](CC(=O)O)C(=O)N[C@H](C)C(=O)N[C@@H](CC(=O)O)C(=O)NCC(=O)N[C@H](CO)C(=O)N[C@@H]([C@H](C)CC(=O)O)C(=O)N[C@@H](CC(=O)c2ccccc2N)C(=O)O[C@@H]1C [Daptomycin] + CCCCCCCCCC(=O)N[C@@H]1[C@H]([C@@H]([C@H](O[C@H]1OC2=C3C=C4C=C2OC5=C(C=C(C=C5)[C@H]([C@H]6C(=O)N[C@@H](C7=C(C(=CC(=C7)O)OC8[C@H]([C@H]([C@@H]([C@H](O8)CO)O)O)O)C9=C(C=CC(=C9)[C@H](C(=O)N6)NC(=O)[C@@H]4NC(=O)[C@@H]1C2=CC(=CC(=C2)OC2=C(C=CC(=C2)[C@H](C(=O)N[C@H](CC2=CC(=C(O3)C=C2)Cl)C(=O)N1)N)O)O)O)C(=O)O)O[C@H]1[C@@H]([C@H]([C@@H]([C@H](O1)CO)O)O)NC(=O)C)Cl)CO)O)O [Teicoplanin]
main component drawn
Details | Bliss interaction score
B. subtilis 168 [1] | 0.0936
S. aureus DSM 20231 [4] | 0.0282
S. aureus Newman [3] | 0.0337
S. pneumoniae D39V [2] | 0.0818

fitness, S. aureus Newman [5], main component drawn
Details | first compound 0.125 µg/mL | first compound 0.25 µg/mL | first compound 0.5 µg/mL
partner 0.1562 µg/mL | 0.998 | 0.992 | ≥ 1
partner 0.3125 µg/mL | ≥ 1 | ≥ 1 | ≥ 1
partner 0.625 µg/mL | ≥ 1 | ≥ 1 | ≥ 1

fitness, S. aureus Newman [5], one replicate, main component drawn
Details | first compound 0.5 µg/mL | first compound 1 µg/mL | first compound 2 µg/mL
partner 0.62 µg/mL | 0.791 | 0.785 | 0.924
partner 1.24 µg/mL | 0.746 | 0.753 | 0.765
partner 2.48 µg/mL | 0.461 | 0.471 | 0.501

fitness, S. aureus DSM 20231 [6]
Details | first compound 0.125 µg/mL | first compound 0.25 µg/mL | first compound 0.5 µg/mL | first compound 1 µg/mL | first compound 2 µg/mL
partner 0.1562 µg/mL | 0.976 | 0.977 | ≥ 1 | 0.949 | ≥ 1
partner 0.3125 µg/mL | ≥ 1 | ≥ 1 | ≥ 1 | ≥ 1 | 0.991
partner 0.625 µg/mL | ≥ 1 | ≥ 1 | ≥ 1 | ≥ 1 | ≥ 1

CCCCCCCCCC(=O)N[C@@H](Cc1c[nH]c2ccccc12)C(=O)N[C@H](CC(N)=O)C(=O)N[C@@H](CC(=O)O)C(=O)N[C@@H]1C(=O)NCC(=O)N[C@@H](CCCN)C(=O)N[C@@H](CC(=O)O)C(=O)N[C@H](C)C(=O)N[C@@H](CC(=O)O)C(=O)NCC(=O)N[C@H](CO)C(=O)N[C@@H]([C@H](C)CC(=O)O)C(=O)N[C@@H](CC(=O)c2ccccc2N)C(=O)O[C@@H]1C [Daptomycin] + CN(C)c1cc(NC(=O)CNC(C)(C)C)c(O)c2c1C[C@H]1C[C@H]3[C@H](N(C)C)C(O)=C(C(N)=O)C(=O)[C@@]3(O)C(O)=C1C2=O [Tigecycline]
Details | Bliss interaction score
B. subtilis 168 [1] | -0.0609
S. aureus DSM 20231 [4] | 0.0697
S. aureus Newman [3] | -0.037
S. pneumoniae D39V [2] | 0.0991

fitness
Details | first compound 0.125 µg/mL | first compound 0.25 µg/mL | first compound 0.5 µg/mL | first compound 1 µg/mL | first compound 2 µg/mL | first compound 4 µg/mL
B. subtilis 168 [7], partner 0.039 µg/mL | 0.929 | 0.926 | 0.869 | – | – | –
B. subtilis 168 [7], partner 0.078 µg/mL | 0.89 | 0.892 | 0.867 | – | – | –
B. subtilis 168 [7], partner 0.156 µg/mL | 0.904 | 0.905 | 0.885 | – | – | –
S. aureus Newman [5], partner 0.039 µg/mL | 0.932 | 0.984 | 0.917 | – | – | –
S. aureus Newman [5], partner 0.078 µg/mL | ≥ 1 | 0.988 | 0.987 | – | – | –
S. aureus Newman [5], partner 0.156 µg/mL | ≥ 1 | 0.997 | 0.991 | – | – | –
S. pneumoniae D39V [8], partner 0.325 µg/mL | – | – | – | 0.973 | 0.993 | 0.976
S. pneumoniae D39V [8], partner 0.65 µg/mL | – | – | – | 0.959 | 0.945 | 0.963
S. pneumoniae D39V [8], partner 1.3 µg/mL | – | – | – | 0.963 | 0.956 | 0.972
S. pneumoniae D39V [8], partner 2.6 µg/mL | – | – | – | 0.911 | 0.903 | 0.956

fitness, B. subtilis 168 [7], one replicate
Details | partner 0.039 µg/mL | partner 0.078 µg/mL | partner 0.125 µg/mL | partner 0.156 µg/mL | partner 0.25 µg/mL | partner 0.5 µg/mL
first compound 0.125 µg/mL | – | – | 0.985 | – | 0.902 | 0.899
first compound 0.25 µg/mL | – | – | 0.974 | – | 0.926 | 0.981
first compound 0.5 µg/mL | – | – | 0.955 | – | 0.944 | 0.989
first compound 1 µg/mL | 0.759 | 0.732 | – | 0.731 | – | –
